For the test, the system named is H3K27 methylation in G401 cell. The test is described as follows: ELISA (H3K27 methylation) assay. The note with it: Homo sapiens, G-401; ELISA Qualified assay (H3K27 methylation); read-out: (c) IC50 (μM), ELISA Qualified. It is filed as cell-based. An excerpt:
ELISA (H3K27 Methylation) Assay
For orientation: In an ELISA, binding on a coated surface is turned into a signal by an enzyme label.
As for `CNc1cc(F)c(-c2cnc(NCc3cccc4c3CCO4)n3cnnc23)cn1` [Example 111, N-((2,3-dihydrobenzofuran-4-yl)methyl)-8-(4-fluoro-6-(methylamino)pyridin-3-yl)-[1,2,4]triazolo[4,3-c]pyrimidin-5-amine], the IC50 worked out at 0.14 µM.

Consider `CN(C)c1cc(F)c(-c2cnc(NCc3cccc4c3CCO4)n3cnnc23)cn1` [Example 112, N-((2,3-dihydrobenzofuran-4-yl)methyl)-8-(6-(dimethylamino)-4-fluoropyridin-3-yl)-[1,2,4]triazolo[4,3-c]pyrimidin-5-amine], for which the 50% inhibitory concentration (IC50) amounted to 0.389 µM.

For the molecule `O=CN1CCCN(c2ccc(-c3cnc(NCc4cccc5c4CCO5)n4cnnc34)cn2)CC1` [Example 113, 4-(5-(5-(((2,3-dihydrobenzofuran-4-yl)methyl)amino)-[1,2,4]triazolo[4,3-c]pyrimidin-8-yl)pyridin-2-yl)-1,4-diazepane-1-carbaldehyde], the IC50 worked out at 0.72 µM.

Regarding `CCNC(=O)c1ccc(-c2cnc(NCc3cccc4c3CCO4)n3cnnc23)cn1` [Example 114, 5-(5-(((2,3-dihydrobenzofuran-4-yl)methyl)amino)-[1,2,4]triazolo[4,3-c]pyrimidin-8-yl)-N-ethylpicolinamide], the IC50 is 1.98 µM.

As for `Fc1ccc2c(c1CNc1ncc(-c3cccnc3F)c3nncn13)CCO2` [Example 115, N-((5-fluoro-2,3-dihydrobenzofuran-4-yl)methyl)-8-(2-fluoropyridin-3-yl)-[1,2,4]triazolo[4,3-c]pyrimidin-5-amine], the IC50 amounted to 0.0243 µM.

As for `Cc1cc(-c2cnc(NCc3c(F)ccc4c3CCO4)n3cnnc23)ccn1` [Example 116, N-((5-fluoro-2,3-dihydrobenzofuran-4-yl)methyl)-8-(2-methylpyridin-4-yl)-[1,2,4]triazolo[4,3-c]pyrimidin-5-amine], the IC50 worked out at 0.0072 µM.

As to `O=C1OCCN1c1ccc(-c2cnc(NCc3cccc4c3CCO4)n3cnnc23)cn1` [Example 117, 3-(5-(5-(((2,3-dihydrobenzofuran-4-yl)methyl)amino)-[1,2,4]triazolo[4,3-c]pyrimidin-8-yl)pyridin-2-yl)oxazolidin-2-one], the IC50 turned out to be 0.48 µM.

For the molecule `Cc1ccncc1-c1cnc(NCc2c(F)ccc3c2CCO3)n2cnnc12` [Example 118, N-((5-fluoro-2,3-dihydrobenzofuran-4-yl)methyl)-8-(4-methylpyridin-3-yl)-[1,2,4]triazolo[4,3-c]pyrimidin-5-amine], the IC50 worked out at 0.0177 µM.

Regarding `Fc1ccc2c(c1CNc1ncc(-c3ccc(C4CC4)nc3)c3nncn13)CCO2` [Example 119, 8-(6-cyclopropylpyridin-3-yl)-N-((5-fluoro-2,3-dihydrobenzofuran-4-yl)methyl)-[1,2,4]triazolo[4,3-c]pyrimidin-5-amine], the IC50 turned out to be 0.0108 µM.

Turning to `Fc1ccc2c(c1CNc1ncc(-c3ccnc(N4CCOCC4)c3)c3nncn13)CCO2` [Example 120, N-((5-fluoro-2,3-dihydrobenzofuran-4-yl)methyl)-8-(2-morpholinopyridin-4-yl)-[1,2,4]triazolo[4,3-c]pyrimidin-5-amine], the IC50 turned out to be 0.0721 µM.

On to `N#Cc1ccccc1-c1cnc(NCc2c(F)ccc3c2CCO3)n2cnnc12` [Example 121, 2-(5-(((5-fluoro-2,3-dihydrobenzofuran-4-yl)methyl)amino)-[1,2,4]triazolo[4,3-c]pyrimidin-8-yl)-benzonitrile], for which the IC50 came out at 0.0142 µM.

As for `NC(=O)c1ccccc1-c1cnc(NCc2c(F)ccc3c2CCO3)n2cnnc12` [Example 122, 2-(5-(((5-fluoro-2,3-dihydrobenzofuran-4-yl)methyl)amino)-[1,2,4]triazolo[4,3-c]pyrimidin-8-yl)benzamide], the IC50 stood at 0.135 µM.

Take `Cc1ncccc1-c1cnc(NCc2cccc3c2CCO3)n2cnnc12` [Example 123, N-((2,3-dihydrobenzofuran-4-yl)methyl)-8-(2-methylpyridin-3-yl)-[1,2,4]triazolo[4,3-c]pyrimidin-5-amine]: the IC50 stood at 0.0197 µM.

Consider `Fc1ccc2c(c1CNc1ncc(-c3cnccc3Cl)c3nncn13)CCO2` [Example 124], for which the IC50 was 0.006 µM.

On to `OC1CN(c2ccc(-c3cnc(NCc4cccc5c4CCO5)n4cnnc34)cn2)C1` [Example 126, 1-(5-(5-(((2,3-dihydrobenzofuran-4-yl)methyl)amino)-[1,2,4]triazolo[4,3-c]pyrimidin-8-yl)pyridin-2-yl)azetidin-3-ol], for which the IC50 was determined as 0.656 µM.

Take `Cc1cc(S(C)(=O)=O)ncc1-c1cnc(NCc2c(F)ccc3c2CCO3)n2cnnc12` [Example 127, N-((5-fluoro-2,3-dihydrobenzofuran-4-yl)methyl)-8-(4-methyl-6-(methylsulfonyl)pyridin-3-yl)-[1,2,4]triazolo[4,3-c]pyrimidin-5-amine]: the IC50 turned out to be 0.028 µM.

As for `Cc1cc(S(C)(=O)=O)ccc1-c1cnc(NCc2c(F)ccc3c2CCO3)n2cnnc12` [Example 128, N-((5-fluoro-2,3-dihydrobenzofuran-4-yl)methyl)-8-(2-methyl-4-(methylsulfonyl)phenyl)-[1,2,4]triazolo[4,3-c]pyrimidin-5-amine], the IC50 amounted to 0.0037 µM.

As for `O=C(c1ccc(-c2cnc(NCc3c(F)ccc4c3CCO4)n3cnnc23)cn1)N1CCCC1` [Example 129, (5-(5-(((5-fluoro-2,3-dihydrobenzofuran-4-yl)methyl)amino)-[1,2,4]triazolo[4,3-c]pyrimidin-8-yl)pyridin-2-yl)(pyrrolidin-l-yl)methanone], the IC50 came to 0.0019 µM.

On to `Cc1cc(C(=O)N2CCCC2)ncc1-c1cnc(NCc2c(F)ccc3c2CCO3)n2cnnc12` [Example 130, (5-(5-(((5-fluoro-2,3-dihydrobenzofuran-4-yl)methyl)amino)-[1,2,4]triazolo[4,3-c]pyrimidin-8-yl)-4-methylpyridin-2-yl)(pyrrolidin-l-yl)methanone], for which the IC50 was 0.0013 µM.

Take `Cc1cc(C(=O)N(C)C)ncc1-c1cnc(NCc2c(F)ccc3c2CCO3)n2cnnc12` [Example 131, 5-(5-(((5-fluoro-2,3-dihydrobenzofuran-4-yl)methyl)amino)-[1,2,4]triazolo[4,3-c]pyrimidin-8-yl)-N,N,4-trimethylpicolinamide]: the IC50 is 0.0033 µM.

On to `Cc1nn(C)c(C)c1-c1cnc(NCc2c(F)ccc3c2CCO3)n2cnnc12` [Example 132, N-((5-fluoro-2,3-dihydrobenzofuran-4-yl)methyl)-8-(1,3,5-trimethyl-1H-pyrazol-4-yl)-[1,2,4]triazolo[4,3-c]pyrimidin-5-amine], for which the IC50 was 0.0077 µM.

For the molecule `O=C1CN(Cc2ccc(-c3cnc(NCc4cccc5c4CCO5)n4cnnc34)cn2)CCN1` [Example 133, 4-((5-(5-(((2,3-dihydrobenzofuran-4-yl)methyl)amino)-[1,2,4]triazolo[4,3-c]pyrimidin-8-yl)pyridin-2-yl)methyl)piperazin-2-one], the IC50 came to 0.142 µM.

In the case of `O=CN1CCN(c2ccc(-c3cnc(NCc4cccc5c4CCO5)n4cnnc34)cn2)CC1` [Example 134, 4-(5-(5-(((2,3-dihydrobenzofuran-4-yl)methyl)amino)-[1,2,4]triazolo[4,3-c]pyrimidin-8-yl)pyridin-2-yl)piperazine-1-carbaldehyde], the IC50 worked out at 0.165 µM.

Consider `CN(C)C(=O)CCc1ccc(-c2cnc(NCc3cccc4c3CCO4)n3cnnc23)cn1` [Example 135, 3-(5-(5-(((2,3-dihydrobenzofuran-4-yl)methyl)amino)-[1,2,4]triazolo[4,3-c]pyrimidin-8-yl)pyridin-2-yl)-N,N-dimethylpropanamide], for which the IC50 came to 0.321 µM.

As for `Fc1ccc2c(c1CNc1ncc(-c3cnccc3C(F)(F)F)c3nncn13)CCO2` [Example 136, N-((5-fluoro-2,3-dihydrobenzofuran-4-yl)methyl)-8-(4-(trifluoromethyl)pyridin-3-yl)-[1,2,4]triazolo[4,3-c]pyrimidin-5-amine], the IC50 is 0.0804 µM.

Turning to `COCc1cc(-c2cnc(NCc3cccc4c3CCO4)n3cnnc23)cnc1C` [Example 137, N-((2,3-dihydrobenzofuran-4-yl)methyl)-8-(5-(methoxymethyl)-6-methylpyridin-3-yl)-[1,2,4]triazolo[4,3-c]pyrimidin-5-amine], the IC50 amounted to 0.226 µM.

Consider `COc1cc(Cl)c(-c2cnc(NCc3c(F)ccc4c3CCO4)n3cnnc23)cn1` [Example 138, 8-(4-chloro-6-methoxypyridin-3-yl)-N-((5-fluoro-2,3-dihydrobenzofuran-4-yl)methyl)-[1,2,4]triazolo[4,3-c]pyrimidin-5-amine], for which the IC50 is 0.0072 µM.

Take `Cc1nc(S(C)(=O)=O)ccc1-c1cnc(NCc2c(F)ccc3c2CCO3)n2cnnc12` [Example 139, N-((5-fluoro-2,3-dihydrobenzofuran-4-yl)methyl)-8-(2-methyl-6-(methylsulfonyl)pyridin-3-yl)-[1,2,4]triazolo[4,3-c]pyrimidin-5-amine]: the IC50 turned out to be 0.0016 µM.

Take `CN(C)C(=O)c1ccc(-c2cnc(NCc3c(F)ccc4c3CCO4)n3cnnc23)cn1` [Example 140, 5-(5-(((5-fluoro-2,3-dihydrobenzofuran-4-yl)methyl)amino)-[1,2,4]triazolo[4,3-c]pyrimidin-8-yl)-N,N-dimethylpicolinamide]: the IC50 turned out to be 0.0263 µM.

For the molecule `COc1ncccc1-c1cnc(NCc2c(F)ccc3c2CCO3)n2cnnc12` [Example 141, N-((5-fluoro-2,3-dihydrobenzofuran-4-yl)methyl)-8-(2-methoxypyridin-3-yl)-[1,2,4]triazolo[4,3-c]pyrimidin-5-amine], the IC50 stood at 0.0351 µM.

Turning to `COc1ccc(-c2cnc(NCc3c(F)ccc4c3CCO4)n3cnnc23)cn1` [Example 142, N-((5-fluoro-2,3-dihydrobenzofuran-4-yl)methyl)-8-(6-methoxypyridin-3-yl)-[1,2,4]triazolo[4,3-c]pyrimidin-5-amine], the IC50 worked out at 0.0043 µM.

Turning to `CCn1nccc1-c1cnc(NCc2c(F)ccc3c2CCO3)n2cnnc12` [Example 143, 8-(1-ethyl-1H-pyrazol-5-yl)-N-((5-fluoro-2,3-dihydrobenzofuran-4-yl)methyl)-[1,2,4]triazolo[4,3-c]pyrimidin-5-amine], the IC50 amounted to 0.0106 µM.

Broadly, the IC50 is the concentration that inhibits the measured activity by half.

These data come from patent US11207325B2, “Triazolopyrimidine compounds and uses thereof” (Novartis AG, priority 2014, dated 2021).
